“And” between values parts separate entries of the source, which are not always exact repeats. Identical values can stand only once.
system: CCL2; experiment: Glycan array analysis of CCL2 (CFG mammalian glycan array V3.1); format: binding, Coprinopsis cinerea; conditions: Alexa Fluor 488 labeled CCL2 200 µg/ml, array V3.1, average of triplicates
Method: (§1) Purified CCL1 and CCL2 were fluorescently labeled with Alexa Fluor 488 (Invitrogen) according to the manufacturer's protocol and used (at a final concentration of 200 µg/ml) to probe versions 4.2 and 3.1, respectively, of the mammalian glycan array offered by Core H of the Consortium for Functional Glycomics (CFG).

Molecule	RFU (relative fluorescence units)
9NAcNeu5Ac2-6Gal1-4GlcNAc-Sp8	239.4 RFU
9NAcNeu5Ac-Sp8	8595.4 RFU
NCCCO[C@H]1O[C@H](CO)[C@@H](O)[C@H](O)[C@@H]1O [-D-Man–Sp8]	152.9 RFU and 130.5 RFU
NCCCO[C@@H]1O[C@H](CO)[C@@H](O)[C@H](O)[C@H]1NC(=O)CO [-GlcN(Gc)-Sp8, -GlcN(Gc)- Sp8]	136.2 RFU
CC(=O)N[C@H]1[C@H](OCCN)O[C@H](CO)[C@@H](O)[C@@H]1O [-GlcNAc–Sp0]	172.7 RFU
C[C@@H]1O[C@@H](OCCCN)[C@@H](O)[C@H](O)[C@@H]1O [-L-Fuc–Sp8]	416.6 RFU
C[C@@H]1O[C@@H](OCCCN)[C@H](O)[C@H](O)[C@H]1O [-L-Rha-Sp8]	112.5 RFU

same assay, conditions: fluorescently labeled CCL2 200 µg/ml, array V3.1

Molecule	binding on glycan array (in words)
CC(=O)N[C@H]1C(O)O[C@H](CO)[C@@H](O)[C@@H]1O[C@@H]1O[C@@H](C)[C@@H](O)[C@@H](O)[C@@H]1O (some centres unmarked) [Fucα1,3GlcNAc]	very low fluorescence
CC(=O)N[C@H]1[C@H](O[C@H]2[C@H](O[C@@H]3O[C@@H](C)[C@@H](O)[C@@H](O)[C@@H]3O)[C@@H](NC(C)=O)C(O)O[C@@H]2CO)O[C@H](CO)[C@H](O)[C@@H]1O (some centres unmarked) [fucosylated LacdiNAc, GalNAcβ1,4[Fucα1,3]GlcNAc]	binds

same assay, conditions: fluorescently labeled CCL2 200 µg/ml, array V3.1; listed as GalNAcβ1,4[Fucα1,3]GlcNAc

Molecule	binding on glycan array (in words)
CC(=O)N[C@H]1[C@H](O[C@H]2[C@H](O[C@@H]3O[C@@H](C)[C@@H](O)[C@@H](O)[C@@H]3O)[C@@H](NC(C)=O)C(O)O[C@@H]2CO)O[C@H](CO)[C@H](O)[C@@H]1O (some centres unmarked) [fucosylated LacdiNAc, GalNAcβ1,4[Fucα1,3]GlcNAc]	one of the best binders

system: CCL1; experiment: Glycan array analysis of CCL1 (CFG mammalian glycan array V4.2); format: binding, Coprinopsis cinerea; conditions: Alexa Fluor 488 labeled CCL1 200 µg/ml, array V4.2, average of triplicates
Method: as §1

Molecule	RFU (relative fluorescence units)
C[C@@H]1O[C@@H](OCCCN)[C@@H](O)[C@H](O)[C@@H]1O [Fuc-Sp8]	26 RFU
NCCCO[C@@H]1O[C@H](CO)[C@@H](O)[C@H](O)[C@H]1NC(=O)CO [GlcN(Gc)-Sp8]	32 RFU
CC(=O)N[C@H]1[C@H](OCCN)O[C@H](CO)[C@@H](O)[C@@H]1O [GlcNAc-Sp0]	6 RFU
C[C@@H]1O[C@@H](OCCCN)[C@H](O)[C@H](O)[C@H]1O [Rha-Sp8]	46 RFU
Fuc1-2Gal1-3(Fuc1-4)GlcNAc-Sp8	80 RFU
Fuc1-2Gal1-3GalNAc1-3Gal1-4Gal1-4Glc-Sp9	76 RFU
Fuc1-2Gal1-3GalNAc1-3Gal-Sp9	129 RFU
Fuc1-2Gal1-3GalNAc1-4(Neu5Ac2-3)Gal1-4Glc-Sp0	5 RFU
Fuc1-2Gal1-3GalNAc1-4(Neu5Ac2-3)Gal1-4Glc-Sp9	20 RFU
Fuc1-2Gal1-3GalNAc-Sp8	70 RFU
Fuc1-2Gal1-3GalNAc-Sp14	25 RFU
Fuc1-2Gal1-3GlcNAc1-3Gal1-4Glc-Sp8	1 RFU
Fuc1-2Gal1-3GlcNAc1-3Gal1-4Glc-Sp10	20 RFU
Fuc1-2Gal1-3GlcNAc-Sp0	3 RFU
Fuc1-2Gal1-3GlcNAc-Sp8	18 RFU
Fuc1-2Gal1-4(Fuc1-3)GlcNAc1-3Gal1-4(Fuc1-3)GlcNAc1-3Gal1-4(Fuc1-3)GlcNAc-Sp0	1835 RFU
Fuc1-2Gal1-4(Fuc1-3)GlcNAc1-3Gal1-4(Fuc1-3)GlcNAc-Sp0	54 RFU
Fuc1-2Gal1-4(Fuc1-3)GlcNAc-Sp0	10 RFU
Fuc1-2Gal1-4(Fuc1-3)GlcNAc-Sp8	29 RFU
Fuc1-2Gal1-4Glc-Sp0	47 RFU
Fuc1-2Gal1-4GlcNAc1-3Gal1-4GlcNAc1-3Gal1-4GlcNAc-Sp0	61 RFU
Fuc1-2Gal1-4GlcNAc1-3Gal1-4GlcNAc-Sp0	15 RFU
Fuc1-2Gal1-4GlcNAc-Sp0	52 RFU
Fuc1-2Gal1-4GlcNAc-Sp8	45 RFU
Fuc1-2Gal-Sp8	12 RFU
Fuc1-3GlcNAc-Sp8	30 RFU and 54 RFU
Fuc1-4GlcNAc-Sp8	62 RFU

Molecule	RFU (relative fluorescence units)
Fuc-Sp9	-10 RFU
Gal1-2Gal-Sp8	71 RFU
Gal1-3(Fuc1-2)Gal1-3GlcNAc-Sp0	61 RFU
Gal1-3(Fuc1-2)Gal1-3GlcNAc-Sp8	31 RFU
Gal1-3(Fuc1-2)Gal1-4(Fuc1-3)GlcNAc-Sp0	46 RFU
Gal1-3(Fuc1-2)Gal1-4(Fuc1-3)GlcNAc-Sp8	35 RFU
Gal1-3(Fuc1-2)Gal1-4GlcNAc-Sp0	41 RFU
Gal1-4GlcNAc1-2Man1-3(Gal1-4GlcNAc1-2Man1-6)Man1-4GlcNAc1-4GlcNAc-Sp12	121 RFU
Gal1-4GlcNAc1-3(Gal1-4GlcNAc1-6)GalNAc-Sp8	24 RFU
Gal-Sp8	99 RFU and 68 RFU
GalNAc1-3(Fuc1-2)Gal1-3GlcNAc-Sp0	100 RFU
GalNAc1-3(Fuc1-2)Gal1-4(Fuc1-3)GlcNAc-Sp0	75 RFU
GalNAc1-3(Fuc1-2)Gal1-4Glc-Sp0	2 RFU
GalNAc1-3(Fuc1-2)Gal1-4GlcNAc-Sp0	82 RFU
GalNAc1-3(Fuc1-2)Gal1-4GlcNAc-Sp8	25 RFU
GalNAc1-3(Fuc1-2)Gal-Sp8	7 RFU and 8 RFU
GalNAc1-3(Fuc1-2)Gal-Sp18	19 RFU
GalNAc1-3Gal1-4Gal1-4GlcNAc-Sp0	18 RFU
GalNAc1-3Gal-Sp8	8 RFU
GalNAc1-3GalNAc-Sp8	7 RFU and 14 RFU
GalNAc1-4(Fuc1-2)Gal1-4GlcNAc-Sp8	13 RFU
GalNAc1-4(Fuc1-3)GlcNAc-Sp0	7887 RFU
GalNAc1-4GlcNAc-Sp0	-11 RFU
GalNAc1-4GlcNAc-Sp8	3 RFU
GalNAc-Sp15	148 RFU
GlcNAc1-2Man1-3(GlcNAc1-2Man1-6)Man1-4GlcNAc1-4GlcNAc-Sp12	90 RFU
GlcNAc1-3Gal1-3GalNAc-Sp8	11 RFU

Molecule	RFU (relative fluorescence units)
GlcNAc-Sp8	4 RFU
Man1-3(Man1-6)Man1-4GlcNAc1-4GlcNAc-Sp12	84 RFU
Neu5Ac2-3[6OSO3]Gal1-4GlcNAc-Sp8	3479 RFU
Neu5Ac2-6Gal1-4GlcNAc1-2Man1-3(Neu5Ac2-6Gal1-4GlcNAc1-2Man1-6)Man1-4GlcNAc1-4GlcNAc-N(LT)AVL	78 RFU
Neu5Ac2-6Gal1-4GlcNAc1-2Man1-3(Neu5Ac2-6Gal1-4GlcNAc1-2Man1-6)Man1-4GlcNAc1-4GlcNAc-Sp13	86 RFU
Neu5Ac-Sp8	113 RFU and 98 RFU
Neu5Ac-Sp11	247 RFU
[3OSO3]Gal1-3(Fuc1-4)GlcNAc-Sp8	89 RFU
[3OSO3]Gal1-3GlcNAc-Sp0	93 RFU
[3OSO3]Gal1-3GlcNAc-Sp8	173 RFU
[3OSO3]Gal1-4(Fuc1-3)Glc-Sp0	140 RFU
[3OSO3]Gal1-4(Fuc1-3)GlcNAc-Sp0	383 RFU
[3OSO3]Gal1-4(Fuc1-3)GlcNAc-Sp8	407 RFU
[3OSO3]Gal1-4(Fuc1-3)[6OSO3]Glc-Sp0	250 RFU
[3OSO3]Gal1-4GlcNAc-Sp0	141 RFU
[3OSO3]Gal1-4[6OSO3]Glc-Sp0	329 RFU
[3OSO3]Gal1-4[6OSO3]Glc-Sp8	228 RFU
[3OSO3]Gal1-4[6OSO3]GlcNAc-Sp0	293 RFU
[3OSO3]Gal-Sp8	42 RFU
[6OSO3]Gal1-4Glc-Sp0	23 RFU
[6OSO3]Gal1-4Glc-Sp8	9 RFU
[6OSO3]Gal1-4GlcNAc-Sp8	27 RFU
[6OSO3]GlcNAc-Sp8	14 RFU
[9NAc]Neu5Ac2-6Gal1-4GlcNAc-Sp8	6 RFU
[9NAc]Neu5Ac-Sp8	27 RFU
